# Laboratory results from PubChem BioAssay (NCI).
#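 Interpolation was linear, between the two tested concentrations surrounding the appropriate level; five concentrations were tested over 48 hours in 96-well plates. Abbreviation: GI50, concentration required for 50% inhibition of growth. TGI is the concentration that stops growth completely.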
# Key:
# Assay in all cases: DTP human tumour cell line panel, 48 h
# [1] = system: HCT-116 colon
# [2] = system: NCI-H226 lung
# [3] = system: MOLT-4 leukemia
# [4] = system: NCI-H522 lung
# [5] = system: EKVX NSCLC
# [6] = system: SNB-75 CNS
# [7] = system: SF-268 CNS
# [8] = system: IGROV1 ovarian
# [9] = system: MCF7 breast
# [10] = system: T-47D breast
Structure (SMILES),TGI [1] [µM],TGI [2] [µM],TGI [3] [µM],TGI [4] [µM],TGI [5] [µM],TGI [6] [µM],TGI [7] [µM],TGI [8] [µM],TGI [9] [µM],TGI [10] [µM],GI50 [1] [µM],GI50 [8] [µM],GI50 [2] [µM],GI50 [3] [µM],GI50 [4] [µM],GI50 [6] [µM],GI50 [7] [µM],GI50 [9] [µM],GI50 [10] [µM]
NC(=O)C(=O)Cc1nc2ccccc2s1,> 100,> 100,> 100,> 100,> 100,> 100,> 100,–,–,–,–,–,–,–,–,–,–,–,–
Nc1c(-c2nc3ccccc3s2)[n+]([O-])c2ccccc2[n+]1[O-],63.9,> 100,> 100,45.8,> 100,76.5,82.2,> 100,–,–,–,–,–,–,–,–,–,–,–
O=CC(O)C(O)C(OC1OC(CO)C(O)C(O)C1O)C(O)CO (centres undefined) (tested in a mixture with another compound),> 100,> 100,–,> 100,–,> 100,> 100,71.9,> 100,> 100,–,–,–,–,–,–,–,–,–
CC1(C)CC(O)CC(C)(C)N1.CC1(C)CC(O)CC(C)(C)N1.CC1(C)CC(O)CC(C)(C)N1.CC1(C)CC(O)CC(C)(C)N1.Cl.[Ti],> 100,> 100,> 100,> 100,–,> 100,> 100,> 100,–,–,> 100,> 100,> 100,> 100,> 100,> 100,> 100,–,–
O=C(O)C1=C(C(=O)O)Oc2ccccc2O1,> 100,> 100,> 100,> 100,> 100,> 100,> 100,> 100,–,–,–,–,–,–,–,–,–,–,–
CCOC(=O)COc1cccc2occc(=O)c12,> 100,–,> 100,> 100,> 100,–,> 100,> 100,–,–,–,–,–,–,–,–,–,–,–
CC(C)(C)c1cc(C(OCCl)(C(F)(F)F)C(F)(F)F)c2c(c1)C(C(F)(F)F)(C(F)(F)F)OC21c2ccccc2C(=O)c2ccccc21,> 100,> 100,> 100,> 100,> 100,> 100,–,–,–,–,–,–,–,–,–,–,–,–,–
Nc1ncnc2sc(Nc3ccccc3)nc12,–,> 100,> 100,> 100,–,> 100,> 100,> 100,–,–,–,–,–,–,–,–,–,–,–
O=C1c2ccoc2C(=O)c2oc(=O)ccc21,10.3,> 56.7,–,4.18,35.2,15.6,27.1,40,–,–,–,–,–,–,–,–,–,–,–
NNC(=O)N/N=C1\CNC(=O)C(=O)C1c1nc2ccccc2s1 (centres undefined),> 100,> 100,–,> 100,> 100,> 100,> 100,> 100,–,–,–,–,–,–,–,–,–,–,–
O=C(Nc1cccc(-n2cc(-c3ccncc3)c(-c3ccc(O)c(Cl)c3)n2)c1)Nc1ccc(Cl)c(Cl)c1,5.33,9.53,4.52,3.76,–,–,16.6,6.78,5.23,6.41,1.83,2.35,3.01,1.43,1.3,–,2.65,1.88,1.84
CC(=O)OC1COC(Oc2c(C)c3c4c(c2O)[C@@H](C)CC[C@@H]4[C@@H](C)C[C@H]3C=C(C)C)C(O)C1O (some centres undefined),41.3,52.3,22.5,> 100,–,–,38.5,> 100,> 100,> 100,16.1,20.1,21.8,2.24,30.5,–,15.4,20.7,33.2
O=S(=O)(Cc1ccccc1)SCc1ccccc1,35.4,54.4,14.3,25.2,> 100,> 100,> 100,> 84.7,–,–,–,–,–,–,–,–,–,–,–
O=C(CCC(=O)C1Cc2ccccc2C1=O)Nc1cccc(C(F)(F)F)c1 (centres undefined),> 100,> 100,> 100,–,> 100,–,> 100,> 100,–,–,–,–,–,–,–,–,–,–,–
O=c1c2cccc3cccc(c4n1CCCN=4)c32,> 100,> 100,> 100,> 100,> 100,> 100,> 100,> 100,–,–,–,–,–,–,–,–,–,–,–
Nc1nc(-c2ccccc2)cc(-c2cc(Cl)ccc2O)n1,> 100,> 100,> 100,99.7,> 100,69,> 100,> 100,–,–,–,–,–,–,–,–,–,–,–
COc1ccc2c3c(c(C(=O)O)oc13)C(CCC(=O)O)CC2 (centres undefined),> 100,–,–,–,> 100,> 100,–,> 100,–,–,–,–,–,–,–,–,–,–,–
C1=C(c2ccccc2)C(OC2Oc3ccccc3C=C2c2ccccc2)Oc2ccccc21 (centres undefined),> 100,> 100,> 100,> 100,> 100,> 100,> 100,> 100,–,–,–,–,–,–,–,–,–,–,–
COc1ccc(C(=O)/C=C/c2ccc(OCc3ccccc3)c(OC)c2)cc1OC,> 100,36.6,> 100,6.54,–,–,> 100,> 100,> 100,> 100,3.19,5.04,3.18,3.65,2.34,–,3.83,3.02,4.33
CC(C)c1cc(C(C)C)c(Cl)c(Cl)c1O (tested in a mixture with another compound),> 100,–,–,35.8,53.7,–,42.4,81.1,54.6,–,–,–,–,–,–,–,–,–,–
COc1ccc2nc(-c3ccc(O)cc3)ccc2c1,> 100,> 100,> 100,> 100,> 100,> 100,–,> 100,–,–,–,–,–,–,–,–,–,–,–
C/C(CC(=O)Nc1cccc(Cl)c1C)=N\N=C(N)N,> 100,> 100,> 100,> 100,> 100,> 100,> 100,> 100,–,–,–,–,–,–,–,–,–,–,–
C1CCN2CC3CONC3C2C1 (centres undefined),> 100,> 100,> 100,> 100,> 100,> 100,> 100,> 100,–,–,–,–,–,–,–,–,–,–,–
Cc1nn2c(-c3nc4cc(Cl)c(Cl)cc4[nH]3)c(-c3ccc(F)cc3)nc2s1,> 26,31.1,> 100,55.8,–,3.71,> 52.8,> 50.6,> 100,14.5,1.3,5.42,4.01,> 100,6.35,1.56,3.15,13.6,1.95
